Source: PubChem BioAssay AID651948 (The Scripps Research Institute Molecular Screening Center, 2012)

Target: Heat shock 70 kDa protein 1A (Homo sapiens) (UniProt P0DMV8)
Assay: PubChem AID 651948
Conditions: HeLa Hsp70 protein level, western blot, 8 h; at 10 µM; active compounds read high

Heat shock 70 kDa protein 1A (Homo sapiens), sequence (P0DMV8 whole entry, looked up): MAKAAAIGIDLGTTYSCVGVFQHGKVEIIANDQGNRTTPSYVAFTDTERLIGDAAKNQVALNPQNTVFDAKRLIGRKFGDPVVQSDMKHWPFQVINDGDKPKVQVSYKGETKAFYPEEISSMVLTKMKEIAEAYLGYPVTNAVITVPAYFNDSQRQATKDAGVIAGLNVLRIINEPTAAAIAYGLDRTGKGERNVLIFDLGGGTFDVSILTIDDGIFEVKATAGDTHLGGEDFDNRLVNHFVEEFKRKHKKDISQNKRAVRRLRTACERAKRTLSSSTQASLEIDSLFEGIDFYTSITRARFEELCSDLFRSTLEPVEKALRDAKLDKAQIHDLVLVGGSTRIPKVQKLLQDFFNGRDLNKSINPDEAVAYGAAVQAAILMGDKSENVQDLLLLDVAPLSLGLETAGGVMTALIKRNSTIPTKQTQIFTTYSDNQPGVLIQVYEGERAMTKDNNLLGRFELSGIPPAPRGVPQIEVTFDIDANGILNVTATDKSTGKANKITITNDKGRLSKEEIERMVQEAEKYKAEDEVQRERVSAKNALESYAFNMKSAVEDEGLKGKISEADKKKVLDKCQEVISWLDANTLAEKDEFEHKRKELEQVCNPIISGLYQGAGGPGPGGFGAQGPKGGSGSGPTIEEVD

In the case of COc1ccc(/C=C/C=C2C(=O)NC(=O)NC2=O)cc1, the fold induction is reported as 1.8.
